The nature of this data set: effect of co-administered P-glycoprotein (Pgp) inhibitor on betrixaban exposure. The conditions noted are these: with concomitant Pgp inhibitor. It is filed as in vivo. The protocol: In some embodiments, a P-glycoprotein (Pgp) inhibitor is concomitantly administered to the patient. […] In one aspect, when used together with a Pgp inhibitor, betrixaban is administered at about 40 mg, or alternatively about 35 mg, or 30, or 25, or 20, or 15, or 10 mg daily. The same amount is applicable to patients who experience kidney insufficiency.

For the compound `COc1ccc(NC(=O)c2ccc(C(=N)N(C)C)cc2)c(C(=O)Nc2ccc(Cl)cn2)c1` [betrixaban, [2-({4-[(dimethylamino)iminomethyl]phenyl}carbonylamino)-5-methoxyphenyl]-N-(5-chloro(2-pyridyl))carboxamide], the exposure of betrixaban entry was “increases the exposure”.
